Reference: PMC8673672, “Synthesis and evaluation of radiogallium-labeled long-chain fatty acid derivatives as myocardial metabolic imaging agents” (PLoS ONE, 2021)
One block for each compound: values may come before it.

How the values were obtained:
[1] = parameters: method as in PMID 31869735; conditions: Ga complex; cited from earlier work
[2] = Biodistribution study in normal mice; type: in vivo; conditions: ddY mice, i.v.
Method: The animal experimental protocols used were approved by the Committee on Animal Experimentation of Kanazawa University (AP-204165). All experiments with animals were conducted in strict accordance with the Guidelines for the Care and Use of Laboratory Animals of Kanazawa University. Mice were housed together in individually ventilated cages with three mice per cage. The animals were housed at 23°C with a 12 h light/dark schedule with free access to a standardized mouse diet and provided drinking water ad libitum water. Autoclaved wood chips were applied as bedding material. The behavior of the mice during the experimental period was normal. Seventy-five ddY mice (male; 6-week-old; 29–33 g) were purchased from Japan SLC Inc., Hamamatsu, Japan. The mice were randomly divided into five groups (n = 15 mice per group) with five different time points for each group (n = 3 mice per time point).
Radiotracers, [^67Ga]5, [^67Ga]6, [^67Ga]7, or [^67Ga]8, in saline containing 5% ethanol and 0.1% tween-80, or [^123I]BMIPP (74 kBq/100 μL, respectively) was intravenously injected into mice via the tail. The ddY mice were sacrificed by decapitation at 0.5, 2, 5, 20, and 60 min. Tissues of interest were removed and weighed. The radioactivity of the tissues was determined using an auto well gamma counter. The data were expressed as percent injected dose per gram tissue (%ID/g).

Compound: O=C([O-])CN1CCN(CC(=O)[O-])CCN(CC(=O)O)CCN(CC(=O)[O-])CC1.[Ga+3] [Ga-DOTA]
Stability constant (log K) [1]: 21.3

Blood radioactivity ([2]; 0.5 min after injection): 20.30 (1.55) %ID/g
Bone radioactivity ([2]; 0.5 min after injection): 2.63 (0.33) %ID/g
Brain radioactivity ([2]; 0.5 min after injection): 0.51 (0.11) %ID/g
Kidney radioactivity ([2]; 0.5 min after injection): 5.21 (0.42) %ID/g
Large intestine radioactivity ([2]; 0.5 min after injection): 0.42 (0.07) %ID/g
Liver radioactivity ([2]; 0.5 min after injection): 12.44 (2.40) %ID/g
Lung radioactivity ([2]; 0.5 min after injection): 24.09 (4.19) %ID/g
Muscle radioactivity ([2]; 0.5 min after injection): 2.85 (0.69) %ID/g
Pancreas radioactivity ([2]; 0.5 min after injection): 2.43 (0.68) %ID/g
Small intestine radioactivity ([2]; 0.5 min after injection): 0.91 (0.15) %ID/g
Spleen radioactivity ([2]; 0.5 min after injection): 4.91 (1.27) %ID/g
Stomach radioactivity ([2]; 0.5 min after injection): 0.60 (0.11) %ID/organ
Heart uptake ([2]; 0.5 min after injection (initial myocardial uptake)): 21.36 (2.73) %ID/g
Blood radioactivity ([2]; 2 min after injection): 6.01 (0.74) %ID/g
Bone radioactivity ([2]; 2 min after injection): 1.97 (0.03) %ID/g
Brain radioactivity ([2]; 2 min after injection): 0.22 (0.03) %ID/g
Heart uptake ([2]; 2 min after injection): 27.60 (3.15) %ID/g
Kidney radioactivity ([2]; 2 min after injection): 5.27 (0.61) %ID/g
Large intestine radioactivity ([2]; 2 min after injection): 0.68 (0.14) %ID/g
Liver radioactivity ([2]; 2 min after injection): 21.35 (0.89) %ID/g
Lung radioactivity ([2]; 2 min after injection): 15.88 (1.94) %ID/g
Muscle radioactivity ([2]; 2 min after injection): 3.24 (0.49) %ID/g
Pancreas radioactivity ([2]; 2 min after injection): 6.11 (1.90) %ID/g
Small intestine radioactivity ([2]; 2 min after injection): 1.33 (0.23) %ID/g
Spleen radioactivity ([2]; 2 min after injection): 3.76 (1.18) %ID/g
Stomach radioactivity ([2]; 2 min after injection): 0.70 (0.17) %ID/organ
Blood radioactivity ([2]; 5 min after injection): 6.75 (1.07) %ID/g
Bone radioactivity ([2]; 5 min after injection): 2.29 (0.27) %ID/g
Brain radioactivity ([2]; 5 min after injection): 0.25 (0.03) %ID/g
Heart uptake ([2]; 5 min after injection): 28.03 (5.37) %ID/g
Kidney radioactivity ([2]; 5 min after injection): 5.93 (1.23) %ID/g
Large intestine radioactivity ([2]; 5 min after injection): 0.66 (0.11) %ID/g
Liver radioactivity ([2]; 5 min after injection): 16.33 (4.41) %ID/g
Lung radioactivity ([2]; 5 min after injection): 16.87 (3.08) %ID/g
Muscle radioactivity ([2]; 5 min after injection): 3.42 (1.06) %ID/g
Pancreas radioactivity ([2]; 5 min after injection): 5.66 (4.30) %ID/g
Small intestine radioactivity ([2]; 5 min after injection): 1.39 (0.27) %ID/g
Spleen radioactivity ([2]; 5 min after injection): 3.09 (1.26) %ID/g
Stomach radioactivity ([2]; 5 min after injection): 0.95 (0.28) %ID/organ
Blood radioactivity ([2]; 20 min after injection): 10.84 (0.20) %ID/g
Bone radioactivity ([2]; 20 min after injection): 2.66 (0.22) %ID/g
Brain radioactivity ([2]; 20 min after injection): 0.43 (0.07) %ID/g
Heart uptake ([2]; 20 min after injection): 23.41 (3.39) %ID/g
Kidney radioactivity ([2]; 20 min after injection): 8.03 (0.09) %ID/g
Large intestine radioactivity ([2]; 20 min after injection): 1.20 (0.04) %ID/g
Liver radioactivity ([2]; 20 min after injection): 6.54 (0.43) %ID/g
Lung radioactivity ([2]; 20 min after injection): 16.21 (1.50) %ID/g
Muscle radioactivity ([2]; 20 min after injection): 3.51 (0.21) %ID/g
Pancreas radioactivity ([2]; 20 min after injection): 9.80 (3.25) %ID/g
Small intestine radioactivity ([2]; 20 min after injection): 1.97 (0.11) %ID/g
Spleen radioactivity ([2]; 20 min after injection): 1.73 (0.55) %ID/g
Stomach radioactivity ([2]; 20 min after injection): 1.06 (0.05) %ID/organ
Blood radioactivity ([2]; 60 min after injection): 10.38 (2.03) %ID/g
Bone radioactivity ([2]; 60 min after injection): 2.42 (0.33) %ID/g
Brain radioactivity ([2]; 60 min after injection): 0.39 (0.04) %ID/g
Heart uptake ([2]; 60 min after injection): 20.92 (3.67) %ID/g
Kidney radioactivity ([2]; 60 min after injection): 6.24 (0.62) %ID/g
Large intestine radioactivity ([2]; 60 min after injection): 1.20 (0.15) %ID/g
Liver radioactivity ([2]; 60 min after injection): 4.34 (0.61) %ID/g
Lung radioactivity ([2]; 60 min after injection): 13.11 (3.05) %ID/g
Muscle radioactivity ([2]; 60 min after injection): 3.87 (0.80) %ID/g
Pancreas radioactivity ([2]; 60 min after injection): 8.04 (3.89) %ID/g
Small intestine radioactivity ([2]; 60 min after injection): 1.88 (0.29) %ID/g
Spleen radioactivity ([2]; 60 min after injection): 1.68 (0.81) %ID/g
Stomach radioactivity ([2]; 60 min after injection): 1.06 (0.17) %ID/organ
Compound: CC(CCCCCCCCCCCCc1ccc([123I])cc1)CC(=O)O (stereo not drawn) [[^123I]BMIPP, β-methyl [^123I]iodophenyl-pentadecanoic acid]
